ChEMBL document CHEMBL2203114, “The Discovery of MK-4256, a Potent SSTR3 Antagonist as a Potential Treatment of Type 2 Diabetes” (ACS Med Chem Lett, 2012)
Activity calls are given as the source filed them. No cut-off for these calls is given here.

Assays:
[1] = biological target: T1, Somatostatin receptor type 3 (Homo sapiens, UniProt P32745)
Description: Inhibition of human SSTR3 transfected in CHO cells assessed as inhibition of SRIF-induced reduction of cAMP accumulation after 45 mins

[2] = biological target: T1, Somatostatin receptor type 3; experiment: biochemical
Description: Displacement of [125I]SS-28 from human SSTR3 transfected in CHO cells after 60 to 90 mins

[3] = biological target: Voltage-gated inwardly rectifying potassium channel KCNH2 (Homo sapiens, UniProt Q12809)
Sequence of Voltage-gated inwardly rectifying potassium channel KCNH2 (Q12809 whole entry): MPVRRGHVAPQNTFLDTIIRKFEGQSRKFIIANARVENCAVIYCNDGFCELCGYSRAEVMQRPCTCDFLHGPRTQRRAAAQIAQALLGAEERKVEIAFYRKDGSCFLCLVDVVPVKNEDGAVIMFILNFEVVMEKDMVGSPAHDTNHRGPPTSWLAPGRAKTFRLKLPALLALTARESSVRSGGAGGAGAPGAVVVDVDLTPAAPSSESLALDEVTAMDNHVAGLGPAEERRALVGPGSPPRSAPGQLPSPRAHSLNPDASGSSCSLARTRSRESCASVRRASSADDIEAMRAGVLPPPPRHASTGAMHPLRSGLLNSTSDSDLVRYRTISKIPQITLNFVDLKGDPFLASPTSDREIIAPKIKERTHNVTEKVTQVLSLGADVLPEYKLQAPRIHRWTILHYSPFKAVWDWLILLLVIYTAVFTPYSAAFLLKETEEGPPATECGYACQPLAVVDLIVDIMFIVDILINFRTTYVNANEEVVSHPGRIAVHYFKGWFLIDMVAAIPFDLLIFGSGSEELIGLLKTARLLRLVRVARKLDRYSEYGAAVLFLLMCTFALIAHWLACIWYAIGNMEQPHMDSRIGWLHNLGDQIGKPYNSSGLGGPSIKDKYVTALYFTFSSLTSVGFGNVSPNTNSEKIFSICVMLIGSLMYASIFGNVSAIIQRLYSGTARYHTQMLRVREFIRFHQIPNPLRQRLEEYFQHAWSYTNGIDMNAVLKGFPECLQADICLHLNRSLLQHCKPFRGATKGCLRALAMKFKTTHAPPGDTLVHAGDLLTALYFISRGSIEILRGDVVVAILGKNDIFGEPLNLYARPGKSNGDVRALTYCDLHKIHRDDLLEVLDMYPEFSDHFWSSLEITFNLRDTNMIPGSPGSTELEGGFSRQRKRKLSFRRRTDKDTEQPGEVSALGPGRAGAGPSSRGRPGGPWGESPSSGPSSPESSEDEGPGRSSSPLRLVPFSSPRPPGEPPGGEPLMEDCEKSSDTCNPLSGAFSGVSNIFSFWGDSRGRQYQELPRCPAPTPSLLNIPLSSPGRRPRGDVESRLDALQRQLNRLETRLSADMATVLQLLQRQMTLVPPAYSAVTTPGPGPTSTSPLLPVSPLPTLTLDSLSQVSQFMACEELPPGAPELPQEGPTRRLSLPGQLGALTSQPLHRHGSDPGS
Description: Displacement of radiolabeled MK-499 from human ERG channel

[4] = biological target: Somatostatin receptor type 3 (Mus musculus) (UniProt P30935); experiment: Inhibition of mouse SSTR3 transfected in CHO cells assessed as inhibition of SRIF-induced reduction of cAMP accumulation after 45 mins relative to control; type: functional, cell-based; parameters: concentration or dose not given beside the values
Sequence of Somatostatin receptor type 3 (Mus musculus) (P30935 whole entry): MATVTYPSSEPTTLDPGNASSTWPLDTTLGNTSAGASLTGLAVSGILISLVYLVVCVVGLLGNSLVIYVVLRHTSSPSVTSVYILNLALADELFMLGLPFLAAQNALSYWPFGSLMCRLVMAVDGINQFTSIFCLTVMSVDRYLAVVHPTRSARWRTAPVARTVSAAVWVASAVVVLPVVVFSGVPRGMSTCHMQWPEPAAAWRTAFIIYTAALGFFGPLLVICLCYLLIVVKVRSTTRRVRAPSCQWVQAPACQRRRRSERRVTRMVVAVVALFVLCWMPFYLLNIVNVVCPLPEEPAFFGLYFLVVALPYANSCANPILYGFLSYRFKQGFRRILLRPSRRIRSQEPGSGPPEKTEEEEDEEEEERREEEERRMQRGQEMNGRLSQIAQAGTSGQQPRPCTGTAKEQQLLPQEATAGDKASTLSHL

[5] = biological target: T2, Somatostatin receptor type 3 (Mus musculus, UniProt P30935)
T2 sequence (P30935 whole entry): as above

Mus musculus [6] = experiment: Antidiabetic activity in C57BL/6 mouse assessed as reduction of glucose excursion at 1 mg/kg, po by OGTT; type: functional; parameters: scale not given: the % may be the effect or the level left
Mus musculus [7] = experiment: Antidiabetic activity in C57BL/6N mouse assessed as reduction of blood glucose level at 0.01 to 1 mg/kg, po measured over 5 hrs; type: functional, organism-based
[8] = biological target: Somatostatin receptor type 4 (Homo sapiens) (UniProt P31391); details: CHO, 20 uM
Sequence of Somatostatin receptor type 4 (Homo sapiens) (P31391 whole entry): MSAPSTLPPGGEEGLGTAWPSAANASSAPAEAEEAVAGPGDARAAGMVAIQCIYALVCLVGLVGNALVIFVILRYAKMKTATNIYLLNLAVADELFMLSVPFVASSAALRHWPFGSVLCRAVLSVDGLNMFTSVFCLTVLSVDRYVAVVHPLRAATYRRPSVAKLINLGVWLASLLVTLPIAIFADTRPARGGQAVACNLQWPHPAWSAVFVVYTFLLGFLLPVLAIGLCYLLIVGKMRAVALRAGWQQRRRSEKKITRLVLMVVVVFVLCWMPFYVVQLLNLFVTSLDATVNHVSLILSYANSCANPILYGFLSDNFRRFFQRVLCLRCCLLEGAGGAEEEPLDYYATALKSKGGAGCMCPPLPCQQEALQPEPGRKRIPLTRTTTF

[9] = biological target: Somatostatin receptor type 5 (Homo sapiens) (UniProt P35346); experiment: Inhibition of human SSTR5 transfected in CHO cells assessed as inhibition of SRIF-induced reduction of cAMP accumulation at 5 uM after 45 mins; type: functional, cell-based
Sequence of Somatostatin receptor type 5 (Homo sapiens) (P35346 whole entry): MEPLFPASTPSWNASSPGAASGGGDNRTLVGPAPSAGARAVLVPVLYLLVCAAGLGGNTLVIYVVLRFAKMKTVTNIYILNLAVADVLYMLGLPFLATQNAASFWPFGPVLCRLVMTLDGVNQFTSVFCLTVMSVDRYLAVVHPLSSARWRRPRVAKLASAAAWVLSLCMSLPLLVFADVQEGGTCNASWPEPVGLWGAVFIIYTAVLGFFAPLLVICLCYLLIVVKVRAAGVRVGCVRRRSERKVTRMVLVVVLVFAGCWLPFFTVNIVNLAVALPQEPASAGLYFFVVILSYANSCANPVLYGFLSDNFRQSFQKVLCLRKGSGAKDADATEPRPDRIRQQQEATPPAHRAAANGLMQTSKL

Mus musculus [10] = experiment: Antidiabetic activity in po dosed C57BL/6 mouse assessed as reduction of glucose excursion by OGTT; type: functional, organism-based
Mus musculus [11] = experiment: Antidiabetic activity in SSTR3-knockout mouse assessed as reduction of blood glucose excursion at 1 mg/kg by OGTT; type: functional; parameters: scale not given: the % may be the effect or the level left
Mus musculus [12] = experiment: Antidiabetic activity in C57BL/6N mouse assessed as reduction of blood glucose excursion at 1 mg/kg by OGTT ( Rvb = 91%); type: functional
[13] = biological target: T2, Somatostatin receptor type 3; experiment: biochemical
Description: Displacement of [125I]SS-28 from mouse SSTR3 transfected in CHO cells after 60 to 90 mins

Mus musculus [14] = experiment: Antidiabetic activity in C57BL/6 mouse assessed as reduction of glucose excursion at 10 mg/kg, po by ipGTT; type: functional; parameters: scale not given: the % may be the effect or the level left
[15] = Plasma concentration in C57BL/6 mouse at 10 mg/kg, po measured after 2.5 hrs; type: ADME, organism-based; parameters: dose 10 mg/kg, route oral
[16] = Half life in rat at 1 mg/kg, iv; details: in vivo
[17] = Half life in mouse at 4 mg/kg, iv; details: in vivo
[18] = Volume of distribution at steady state in rat at 2 mg/kg, po and 1 mg/kg, iv; details: in vivo
in vivo [19] = details: rhesus monkey, po, 2 mg/kg
in vivo [20] = details: rat, po, 2 mg/kg
[21] = Volume of distribution at steady state in mouse at 10 mg/kg, po and 4 mg/kg, iv; details: in vivo
[22] = Volume of distribution at steady state in dog at 1 mg/kg, iv and 2 mg/kg, po; details: in vivo
in vivo [23] = details: mouse, po, 10 mg/kg
[24] = Clearance in rhesus monkey at 1 mg/kg, iv; details: in vivo
in vivo [25] = details: rhesus monkey, plasma, po, 2 mg/kg
[26] = Half life in rhesus monkey at 1 mg/kg, iv; details: in vivo
[27] = Clearance in dog at 1 mg/kg, iv; details: in vivo
in vivo [28] = details: dog, plasma, po, 2 mg/kg
[29] = Clearance in mouse at 4 mg/kg, iv; details: in vivo
in vivo [30] = details: mouse, plasma, po, 10 mg/kg
[31] = Half life in dog at 1 mg/kg, iv; details: in vivo
in vivo [32] = details: dog, po, 2 mg/kg
in vivo [33] = details: rat, plasma, po, 2 mg/kg
[34] = Clearance in rat at 1 mg/kg, iv; details: in vivo
[35] = Volume of distribution at steady state in rhesus monkey at 1 mg/kg, iv and 2 mg/kg, po; details: in vivo
Mus musculus [36] = experiment: Antidiabetic activity in C57BL/6N mouse assessed as reduction of blood glucose level at 10 mg/kg, po measured after 60 mins post administration; type: functional, organism-based; parameters: dose 10 mg/kg

T1 sequence (P32745 whole entry): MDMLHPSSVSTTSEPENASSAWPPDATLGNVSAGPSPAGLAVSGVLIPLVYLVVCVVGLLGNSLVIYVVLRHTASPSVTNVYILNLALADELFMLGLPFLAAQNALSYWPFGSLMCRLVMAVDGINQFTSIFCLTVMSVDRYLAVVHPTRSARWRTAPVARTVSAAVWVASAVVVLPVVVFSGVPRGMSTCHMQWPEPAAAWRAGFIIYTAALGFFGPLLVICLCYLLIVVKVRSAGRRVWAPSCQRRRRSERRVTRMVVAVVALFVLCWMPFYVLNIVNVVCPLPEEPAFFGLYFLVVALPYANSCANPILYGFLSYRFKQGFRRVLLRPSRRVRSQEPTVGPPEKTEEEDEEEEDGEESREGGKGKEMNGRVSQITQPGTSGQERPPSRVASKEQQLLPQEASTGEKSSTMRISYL

Row | SMILES | IC50 [1] | IC50 [2] | Ki [3] | inhibition [4] | IC50 [5] | Activity (Mus musculus [6]) | IC50 [13] | Activity (Mus musculus [14]) | concentration at 2.5 h [15] | also measured
1 | Cc1nc([C@H]2N[C@@H](c3nc(-c4ccc(F)cc4)c[nH]3)Cc3c2[nH]c2ccccc32)no1 | 19 nM | 19 nM | 385 nM | 103% | 18 nM | – | – | – | – | –
2 | Cc1nc([C@]2(c3cnn(C)c3)N[C@H](c3nc(-c4ccc(F)cc4)c[nH]3)Cc3c2[nH]c2ccccc32)no1 | – | – | – | 68% | – | 80% | – | – | – | –
3 | Cc1nc([C@]2(c3cnn(C)c3)N[C@@H](c3nc(-c4ccc(F)cc4)c[nH]3)Cc3c2[nH]c2ccccc32)no1 | – | – | – | 87% | – | 109% | – | – | – | Activity (Mus musculus [7]): inactive; inhibition [8]: 42%; inhibition [9]: 34%; Activity (Mus musculus [10]): Dose-dependent effect; Activity (Mus musculus [11]): 28%; inhibition in vivo at 1 mg/kg (Mus musculus [12]): 112%
4 | Cc1nc([C@@]2(c3cnn(C)c3)N[C@@H](c3nc(-c4ccc(F)cc4)c[nH]3)Cc3c2[nH]c2ccccc32)no1 | – | – | – | 130% | – | 63% | – | – | – | –
5 | Fc1ccc(-c2c[nH]c([C@H]3Cc4c([nH]c5ccccc45)[C@@H](C4CCOCC4)N3)n2)cc1 | 5.7 nM | 2.8 nM | – | 108% | 26 nM | – | 1.7 nM | 79% | 4600 nM | –
6 | Cn1cc([C@H]2N[C@@H](c3nc(-c4ccc(F)cc4)c[nH]3)Cc3c2[nH]c2ccccc32)cn1 | 9.3 nM | 6.9 nM | 300 nM | 67% | 4.4 nM | – | 4 nM | 91% | 1200 nM | –
7 | Cc1nc([C@@H]2N[C@@H](c3nc(-c4ccc(F)cc4)c[nH]3)Cc3c2[nH]c2ccccc32)no1 | 58 nM | 9.2 nM | 2210 nM | 92% | 29 nM | – | 8.1 nM | 87% | 200 nM | half-life [16]: 8.14 h; half-life [17]: 2.58 h; Vd [18]: 5.83 L/kg; bioavailability (in vivo [19]): 51%; bioavailability (in vivo [20]): 58%; Vd [21]: 7.21 L/kg; Vd [22]: 0.87 L/kg; bioavailability (in vivo [23]): 76%; clearance [24]: 2.79 mL/min/kg; AUC(0-t) (in vivo [25]): 12.4 µM·h; half-life [26]: 8.08 h; clearance [27]: 1.78 mL/min/kg; AUC(0-t) (in vivo [28]): 27.6 µM·h; clearance [29]: 39.9 mL/min/kg; AUC(0-t) (in vivo [30]): 7.73 µM·h; half-life [31]: 6.69 h; bioavailability (in vivo [32]): 67%; AUC(0-t) (in vivo [33]): 4.36 µM·h; clearance [34]: 9.67 mL/min/kg; Vd [35]: 1.75 L/kg
8 | Cc1nc([C@@]2(c3cnn(C)c3)N[C@H](c3nc(-c4ccc(F)cc4)c[nH]3)Cc3c2[nH]c2ccccc32)no1 | – | – | – | 92% | – | 81% | – | – | – | –
9 | Cn1cc(C2(c3cnn(C)c3)N[C@@H](c3nc(-c4ccc(F)cc4)c[nH]3)Cc3c2[nH]c2ccccc32)cn1 | 0.7 nM | 0.74 nM | – | 113% | 0.48 nM | 68% | 0.46 nM | – | – | –
10 | Cc1nc(C2(c3noc(C)n3)N[C@@H](c3nc(-c4ccc(F)cc4)c[nH]3)Cc3c2[nH]c2ccccc32)no1 | 1.2 nM | 0.97 nM | – | 133% | 1.3 nM | 71% | 0.59 nM | – | – | –
11 | c1ccc(-c2c[nH]c([C@H]3Cc4c([nH]c5ccccc45)[C@@H](C4CCOCC4)N3)n2)cc1 | 11 nM | – | – | 98% | – | – | – | 75% | 3800 nM | –
12 | Cn1cc([C@@H]2N[C@@H](c3nc(-c4ccc(F)cc4)c[nH]3)Cc3c2[nH]c2ccccc32)cn1 | 33 nM | 7.2 nM | 2190 nM | 66% | 26 nM | – | 4.8 nM | 84% | 1600 nM | half-life [16]: 2.26 h; half-life [17]: 2.24 h; Vd [18]: 4.59 L/kg; bioavailability (in vivo [20]): 47%; Vd [21]: 10.8 L/kg; bioavailability (in vivo [23]): 100%; clearance [29]: 99.6 mL/min/kg; AUC(0-t) (in vivo [30]): 4.11 µM·h; AUC(0-t) (in vivo [33]): 1.38 µM·h; clearance [34]: 25.3 mL/min/kg
13 | Cc1cnc(C(=O)NCCc2ccc(S(=O)(=O)NC(=O)NC3CCCCC3)cc2)cn1 | – | – | – | – | – | – | – | – | – | Activity (Mus musculus [36]): Active
14 | Fc1ccc(-c2c[nH]c([C@H]3Cc4c([nH]c5ccccc45)C(c4ccccc4)(c4ccccc4)N3)n2)cc1 | 7.3 nM | 0.76 nM | 44 nM | 101% | 2.4 nM | – | – | – | – | –
